ChEMBL document CHEMBL3638901, “Thienopyrazole derivative having PDE7 inhibitory activity” (2014)

Each compound was assayed against High affinity 3',5'-cyclic-AMP phosphodiesterase 7A (Homo sapiens, UniProt Q13946) (assay: Inhibition Assay: The PDE 7 (phosphodiesterase VII) inhibiting effect of the compounds of the present invention was performed by the following method, which was modified assay method described in Biochemical. Pharmacol. 48(6), 1219-1223 (1994). (1) The active fraction of PDE 7 (phosphodiesterase VII) was obtained. That is, MOLT-4 (obtainable from ATCC as ATCC No. CRL-1582), which was cell line of human acute lymphoblastic […] T cells, was incubated in RPMI1640 culture medium containing 10% fetal bovine serum to obtain 5x10^8 MOLT-4 cells. The cells were collected by centrifugation and suspended with 10 mL of buffer solution A [25 mM of tris-HCl, 5 mM of 2-mercaptoethnol, 2 mM of benzamidine, 2 mM of EDTA, 0.1 mM of 4-(2-aminoethyl)benzensulfonyl hydrochloride; pH 7.5], then homogenized by Polytron homogenizer. The homogenate were centrifuged under 25,000xG for 10 minutes at 4 C. The supernatant was separated and thus obtained supernatant was further centrifuged under 100,000xG for 60 minutes.).
High affinity 3',5'-cyclic-AMP phosphodiesterase 7A, sequence (Q13946 whole entry): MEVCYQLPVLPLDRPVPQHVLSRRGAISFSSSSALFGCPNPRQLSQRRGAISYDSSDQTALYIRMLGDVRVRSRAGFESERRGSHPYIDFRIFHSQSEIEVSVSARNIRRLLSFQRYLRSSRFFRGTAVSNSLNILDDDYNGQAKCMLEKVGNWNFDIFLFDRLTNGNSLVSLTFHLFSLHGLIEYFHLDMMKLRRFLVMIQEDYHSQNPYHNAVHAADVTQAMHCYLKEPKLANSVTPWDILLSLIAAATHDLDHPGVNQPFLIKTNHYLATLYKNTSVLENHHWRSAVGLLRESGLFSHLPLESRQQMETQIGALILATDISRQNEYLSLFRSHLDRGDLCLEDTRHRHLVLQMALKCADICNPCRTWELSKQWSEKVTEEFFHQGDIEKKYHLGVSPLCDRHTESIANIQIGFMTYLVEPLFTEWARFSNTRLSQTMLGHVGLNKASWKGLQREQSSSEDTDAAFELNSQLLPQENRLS

| IC50 [nM] | Structure (SMILES) |
| --- | --- |
| 34 | Cc1nn(C2CCCCC2)c2sc(C(=O)Nc3ccc(N4CCOCC4)cc3)cc12 |
| 85 | COc1cc(NC(=O)c2cc3c(C)nn(C4CCCCC4)c3s2)ccc1C(=O)N1CCN(C)CC1 |
| 65 | COc1cc(NC(=O)c2cc3c(C)nn(C4CCCCC4)c3s2)ccc1C(=O)N1CCC(O)CC1 |
| 55 | Cc1nn(C2CCCCC2)c2sc(C(=O)Nc3ccc(N4CCN(C)CC4)c(Cl)c3)cc12 |
| 13 | Cc1nn(C2CCCCC2)c2sc(C(=O)NC3CC[C@@H](C(=O)N(C)C)C3)cc12 (stereo partly specified) |
| 24 | Cc1nn(C2CCOCC2)c2sc(C(=O)N[C@H]3CC[C@H](N4CCOCC4)CC3)cc12 |
